In US12643892B2, “Pyridazinone compounds for the treatment of neuromuscular diseases” (Edgewise Therapeutics, Inc., priority 2020, dated 2026):

biological target: Skeletal Myofibril ATPase (Rabbit Psoas myofibrils); assay: Skeletal Myofibril ATPase Assay; type: biochemical; details: PK/LDH-coupled NADH absorbance at 340 nm
In short: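 Rabbit psoas myofibril ATPase read through a PK-LDH coupled system, as NADH loss at 340 nm every 1.5-2 min for 1 h, in PIPES/CaCl2/EGTA pCa buffer at pH 7.0. Absorbance change normalized to 1% DMSO vehicle (100%) and no change (0%). IC50 from a four-parameter logistic fit with bottom constrained ≥0.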

Structure (SMILES)	IC50
CCCCn1nc(-c2nc(-c3ccc(F)cc3)no2)ccc1=O [Compound 76, 2-butyl-6-(3-(4-fluorophenyl)-1,2,4-oxadiazol-5-yl)pyridazin-3(2H)-one]	≤ 10 µM
CCCNC(=O)Cn1nc(-c2nc(-c3cccnc3)no2)ccc1=O [Compound 50, 2-(6-oxo-3-(3-(pyridin-3-yl)-1,2,4-oxadiazol-5-yl)pyridazin-1(6H)-yl)-N-propylacetamide]	10 to 100 µM
Cc1ccc(-c2noc(-c3ccc(=O)n(Cc4cccc(F)c4)n3)n2)cc1 [Compound 71, 2-(3-fluorobenzyl)-6-(3-(p-tolyl)-1,2,4-oxadiazol-5-yl)pyridazin-3(2H)-one]	> 100 µM
COc1ccc(NC(=O)Cn2nc(-c3ccco3)ccc2=O)c(OC)c1 [Compound 52, N-(2,4-dimethoxyphenyl)-2-(3-(furan-2-yl)-6-oxopyridazin-1(6H)-yl)acetamide]	10 to 100 µM
O=c1ccc(-c2nc(-c3ccncc3)no2)cn1Cc1ccc(Cl)cc1 [Compound 119, 1-(4-chlorobenzyl)-5-(3-(pyridin-4-yl)-1,2,4-oxadiazol-5-yl)pyridin-2(1H)-one]	> 120 µM
O=c1ccc(-c2nc(-c3ccc(Cl)cc3)no2)cn1Cc1ccc(Cl)c(Cl)c1 [Compound 124, 5-(3-(4-chlorophenyl)-1,2,4-oxadiazol-5-yl)-1-(3,4-dichlorobenzyl)pyridm-2(1H)-one]	> 120 µM
O=C(Cn1nc(-c2nc(-c3cccc(Cl)c3)no2)ccc1=O)NC1CCC1 [Compound 5, 2-(3-(3-(3-chlorophenyl)-1,2,4-oxadiazol-5-yl)-6-oxopyridazin-1(6H)-yl)-N-cyclobutylacetamide]	≤ 10 µM
CCNC(=O)Cn1nc(-c2ncc(-c3cccc(Cl)c3)s2)ccc1=O [Compound 25, 2-(3-(5-(3-chlorophenyl)thiazol-2-yl)-6-oxopyridazin-1(6H)-yl)-N-ethylacetamide]	≤ 10 µM
O=c1ccc(-c2nc(-c3ccccc3F)no2)cn1Cc1cccnc1 [Compound 111, 5-(3-(2-fluorophenyl)-1,2,4-oxadiazol-5-yl)-1-(pyridin-3-ylmethyl)pyridin-2(1H)-one]	> 120 µM
O=c1ccc(-n2cncn2)nn1Cc1ccc(Cl)cc1 [Compound 79, 2-(4-chlorobenzyl)-6-(1H-1,2,4-triazol-1-yl)pyridazin-3(2H)-one]	10 to 100 µM
Cn1ccc2c(NC(=O)Cn3nc(-c4cccs4)ccc3=O)cccc21 [Compound 83, N-(1-methyl-1H-indol-4-yl)-2-(6-oxo-3-(thiophen-2-yl)pyridazin-1(6H)-yl)acetamide]	≤ 10 µM
CCNC(=O)Cn1nc(-c2nc(-c3cccc(Cl)c3)co2)ccc1=O [Compound 30, 2-(3-(4-(3-chlorophenyl)oxazol-2-yl)-6-oxopyridazin-1(6H)-yl)-N-ethylacetamide]	≤ 10 µM
CCNC(=O)Cn1nc(-c2nc(-c3cccc(Cl)c3)cs2)ccc1=O [Compound 81, 2-(3-(4-(3-chlorophenyl)thiazol-2-yl)-6-oxopyridazin-1(6H)-yl)-N-ethylacetamide]	> 100 µM
O=c1ccc(-c2nnc(-c3cccc(Cl)c3)o2)nn1Cc1ccccc1 [Compound 73, 2-benzyl-6-(5-(3-chlorophenyl)-1,3,4-oxadiazol-2-yl)pyridazin-3(2H)-one]	≤ 10 µM
COc1ccc(NC(=O)Cn2nc(-c3cccs3)ccc2=O)cc1 [Compound 45, N-(4-methoxyphenyl)-2-(6-oxo-3-(thiophen-2-yl)pyridazin-1(6H)-yl)acetamide]	10 to 100 µM
CCNC(=O)Cn1nc(-c2noc(-c3cccc(Cl)c3)n2)ccc1=O [Compound 31, 2-(3-(5-(3-chlorophenyl)-1,2,4-oxadiazol-3-yl)-6-oxopyridazin-1(6H)-yl)-N-ethylacetamide]	≤ 10 µM
CCC(C)(C)NC(=O)Cn1nc(-c2ccc(C)s2)ccc1=O [Compound 82, 2-(3-(5-methylthiophen-2-yl)-6-oxopyridazin-1(6H)-yl)-N-(tert-pentyl)acetamide]	≤ 10 µM
